The test system of one data set is calf thymus DNA (ctDNA). Description: Terbium (Tb3+) luminescent biosensor detection of induced DNA damage. It counts as biochemical. The following applies: for Tb luminescence enhancement (induced DNA damage): ctDNA incubated with compound 24 h, emission 545 nm, excitation 270 nm, compared with ctDNA-Tb mixture. The text has this:
Luminescence studies were accomplished in order to examine the possible DNA interaction with the studied compounds. Many luminescent biosensors are reported in literature for studying the possibility of DNA interaction with small molecules. […] Figure 5 presents a schematic diagram for the fluorometric detection of the induced DNA damage using Tb biosensor. Tb^3+ ion in the Tb luminescent probe is a trivalent lanthanide cation having low intrinsic luminescence in aqueous solutions[45]^,[46]. When Tb biosensor is added to a solution of DNA, it interacts differently with double-stranded DNA (dsDNA) and single-stranded DNA (ssDNA). With dsDNA, Tb^3+ ions are electrostatically attracted to the negatively charged phosphate backbone of the DNA. […] Therefore, the assessed compound damages dsDNA, ssDNA sites would be formed opposite to the site of damage and Tb^3+ would directly coordinate to the unpaired nucleobases in this single-stranded site.
For investigating the DNA interaction potential of the fourteen studied compounds, calf thymus DNA (ctDNA) was incubated with each compound for 24 h and then Tb was added to each mixture. Doxorubicin (DOX), a commonly used reference for DNA damaging agent was used and treated the same condition as the studied compounds. Tb luminescent intensity was measured at λmax = 545 nm after excitation at λmax = 270 nm.
Several concentrations within the range of 0.1 pM–200.0 μM of each of the studied compounds were incubated with ctDNA for 24 h. After which, Tb solution was added to aliquots of such mixtures and the luminescence intensity was recorded. Figure 7 presents Tb luminescence intensity as a function of the compound concentration for various compound/ctDNA/Tb mixtures. At minimum concentration of the studied compounds, minimum Tb luminescence was recorded. This reflects that the DNA molecule is undamaged, intact and acquiring a double helical structure. In this conformation, Tb ions are electrostatically attracted to the negatively charged DNA-phosphate backbone showing no increase in its luminescence. For solutions with higher concentrations of compounds 5b, 5h, and 5j (Figure 7a,c,and d). Tb fluorescence increased proportionally with the concentration until a concentration of 100 and 60 μM for compounds 5b, 5h, and 5j, respectively, where no further increase in the fluorescence occurs. This reflects that more DNA damage is induced with increasing concentrations of the three compounds. At concentrations higher than 100 and 60 μM for compounds 5b, 5h, and 5j, respectively, Tb luminescence remains constant at high fluorescence levels. […] Table 1 illustrates the analytical parameters elucidated as shown in Figure 7 for the quantification of the induced DNA damage by the studied compounds. The linearity parameters were calculated from the calibration curve in Figure 7-inset in order to obtain the minimum concentration of the studied compounds that would induce DNA damage.
Fluorescence measurements: Fluorescence spectra were measured between 290 and 800 nm with excitation at 270 nm of 100 µL solutions in a 1 cm path length Suprasil quartz fluorescence cuvette.
The PerkinElmer LS 55 fluorescence spectrophotometer was used to measure the fluorescence. After 24 h of incubation in buffer solution (40 mM Tris, 10 mM NaCl, pH 7.5), aliquots of each DNA-Compound mixture were combined with TbCl3 to confirm DNA damage. The final concentrations were […] ctDNA, 3 mM TbCl3, and 50 µM of each compound in buffer solution (40 mM Tris, 10 mM NaCl, pH 7.5). Calf thymus DNA (ctDNA) was combined with various quantities of each substance, ranging from 0.1 pM to 200 µM, for the experiment. The ultimate concentrations of […] ctDNA and 3 mM were achieved by adding Tb3 + solution to the ctDNA/compound combinations in buffer solution (40 mM Tris, 10 mM NaCl, pH 7.5) after 24 h of incubation.[44]
All chemicals, solvents, media and kits were purchased from commercial suppliers. […]

The subject of data set [1] is hepatocellular carcinoma (HepG2). The experiment in a line: MTT cytotoxicity assay, HepG2. To be noted: Homo sapiens, 24 h treatment, read-out: IC50 against HepG2. In kind it is cell-based. How it is done:
(Supplementary file). Compounds 5b and 5h were screened for their effects on the normal breast cell line MCF‐10a. Cells at a density of 1 × 104 were seeded in a 96‐well plate at 37 °C for 48 h under 5% CO2. After incubation, the cells were treated with different concentrations of the prepared molecules and incubated for 24 h. MTT dye was added after 24 h of drug treatment and incubated for 4 h at 37 °C. Also, 100 μl of dimethyl sulphoxide was added to each well to dissolve the purple formazan formed. The colour intensity of the formazan product, which represents the growth condition of the cells, was quantified using an enzyme‐linked immunosorbent assay (ELISA) plate reader at 570 nm. The experiments were carried out with at least three replicates and they were repeated at least three times.
(§1) All chemicals, solvents, media and kits were purchased from commercial suppliers.
(§2) In vitro anticancer screening […]
(§3) against three cancer cell lines namely: hepatocellular carcinoma (HepG2), human breast adenocarcinoma (MCF-7) and human colon cancer (HCT -116) utilizing MTT assay2. Compounds […]
(§4) 5b and 5h were screened for their effects on the normal breast cell line MCF‐10a. Cells at a density of 1 × 104 were seeded in a 96‐well plate at 37°C for 48 hr under 5% CO2. After incubation, the cells were treated with different concentrations of the prepared molecules and incubated for 24 hr.
(§5) MTT dye was added after 24 h of drug treatment and incubated for 4 h at 37°C. Also, 100 μl of dimethyl sulphoxide was added to each well to dissolve the purple formazan formed. The color intensity of the formazan product, which represents the growth condition of the cells, was quantified using an enzyme‐linked immunosorbent assay (ELISA) plate reader at 570 nm. The experiments were carried out with at least three replicates and they were repeated at least three […]
(§6) *: Statistically significant at p ≤ 0.05
(§7) Means with any Common letter (a-e) are not significant (OR Means with totally Different letters (a-e) are significant)

Data set [2] has as its system human colon cancer (HCT-116). Description: MTT cytotoxicity assay, HCT-116. It counts as cell-based. The following applies: 24 h treatment, read-out: IC50 against HCT-116. How it is done: as §1, §2, §3, §4, §5, §6, §7
Background: Tetrazolium assays rely on reduction of a dye to a coloured formazan, in cell work by metabolically active cells.

Compound `Cn1c(-c2ccccc2)cn(N=C2C(=O)c3cccc4cccc2c34)c1=S` [5a, 2-((3-Methyl-4-phenyl-2-thioxo-2,3-dihydro-1H-imidazol-1-yl)imino)acenaphthylen-1(2H)-one] displayed a melting point of 220 to 222 °C.

Regarding `O=C1C(=Nn2cc(-c3ccccc3)n(Cc3ccccc3)c2=S)c2cccc3cccc1c23` [5c, 2-((3-Benzyl-4-phenyl-2-thioxo-2,3-dihydro-1H-imidazol-1-yl)imino)-acenaphthylen-1(2H)-one], the melting point is 212 to 214 °C.

In turn, `O=C1C(=Nn2cc(-c3ccccc3)n(C3CCCCC3)c2=S)c2cccc3cccc1c23` [5d, 2-((3-Cyclohexyl-4-phenyl-2-thioxo-2,3-dihydro-1H-imidazol-1-yl)imino)-acenaphthylen-1(2H)-one] returned a melting point of 192 to 194 °C.

For `COc1cccc(-n2c(-c3ccccc3)cn(N=C3C(=O)c4cccc5cccc3c45)c2=S)c1` [5e, 2-((3-(3-Methoxyphenyl)-4-phenyl-2-thioxo-2,3-dihydro-1H-imidazol-1-yl)imino)-acenaphthylen-1(2H)-one], the melting point was 212 to 214 °C. In the data set with calf thymus DNA (ctDNA), the “Tb luminescence enhancement (induced DNA damage)” value (“Tb luminescence enhancement” for short) is given as “significant enhancement”. Besides, in the data set with calf thymus DNA (ctDNA) (ctDNA, 24 h incubation), the “Concentration at which Tb luminescence stops increasing (maximum DNA damage)” value was determined as 80 µM, the “Concentration up to which no enhancement of Tb luminescence intensity occurs” value worked out at 20 µM, the “LOD (limit of detection; minimum concentration inducing detectable damage in ctDNA)” value was 14.2 nM and the “LOQ (limit of quantitation)” value came out at 46.9 nM.

Turning to `C=CCn1c(-c2ccccc2)cn(N=C2C(=O)c3cccc4cccc2c34)c1=S` [5f, 2-((3-Allyl-4-phenyl-2-thioxo-2,3-dihydro-1H-imidazol-1-yl)imino)acenaphthylen-1(2H)-one], the melting point was in the range of 212 to 214 °C. In addition, the “Tb luminescence enhancement” value in the data set with calf thymus DNA (ctDNA) is “minimum enhancement”.

In turn, `Cn1c(-c2ccc(Cl)cc2)cn(N=C2C(=O)c3cccc4cccc2c34)c1=S` [5g, 2-((4–(4-Chlorophenyl)-3-methyl-2-thioxo-2,3-dihydro-1H-imidazol-1-yl)imino)-acenaphthylen-1(2H)-one] gave a melting point of 262 to 264 °C.

Compound `O=C1C(=Nn2cc(-c3ccc(Cl)cc3)n(Cc3ccccc3)c2=S)c2cccc3cccc1c23` [5i, 2-((3-Benzyl-4-(4-chlorophenyl)-2-thioxo-2,3-dihydro-1H-imidazol-1-yl)imino)-acenaphthylen-1(2H)-one] yielded a melting point of 260 to 262 °C.

With `COc1cccc(-n2c(-c3ccc(Cl)cc3)cn(N=C3C(=O)c4cccc5cccc3c45)c2=S)c1` [5j, 2-((4-(4-Chlorophenyl)-3-(3-methoxyphenyl)-2-thioxo-2,3-dihydro-1H-imidazol-1-yl)-imino)acenaphthylen-1(2H)-one], the melting point was in the range of 282 to 284 °C. For the same compound, in data set [1], the IC50 turned out to be 7.9 µM. Further, the “Tb luminescence enhancement” value in the data set on calf thymus DNA (ctDNA) is recorded as “significant enhancement”. Moreover, in the data set with calf thymus DNA (ctDNA) (ctDNA, 24 h incubation), the “Concentration at which Tb luminescence stops increasing (maximum DNA damage)” value worked out at 60 µM, the “LOD (limit of detection; minimum concentration inducing detectable damage in ctDNA)” value turned out to be 12.7 nM and the “LOQ (limit of quantitation)” value was 42.4 nM. The IC50 in data set [2] stood at 10.8 µM.

Turning to `C=CCn1c(-c2ccc(Cl)cc2)cn(N=C2C(=O)c3cccc4cccc2c34)c1=S` [5k, 2-((3-Allyl-4-(4-chlorophenyl)-2-thioxo-2,3-dihydro-1H-imidazol-1-yl)imino)-acenaphthylen-1(2H)-one], the melting point fell in the range of 262 to 264 °C. The “Tb luminescence enhancement” value with calf thymus DNA (ctDNA) is given as “minimum enhancement”.

On to `Cn1c(-c2ccc3ccccc3c2)cn(N=C2C(=O)c3cccc4cccc2c34)c1=S` [5l, 2-((3-Methyl-4-(naphthalen-2-yl)-2-thioxo-2,3-dihydro-1H-imidazol-1-yl)imino)-acenaphthylen-1(2H)-one], for which the melting point was 240 to 242 °C.

For the compound `O=C1C(=Nn2cc(-c3ccc4ccccc4c3)n(Cc3ccccc3)c2=S)c2cccc3cccc1c23` [5m, 2-((3-Benzyl-4-(naphthalen-2-yl)-2-thioxo-2,3-dihydro-1H-imidazol-1-yl)imino)-acenaphthylen-1(2H)-one], the melting point fell in the range of 332 to 334 °C.

Compound `C=CCn1c(-c2ccc3ccccc3c2)cn(N=C2C(=O)c3cccc4cccc2c34)c1=S` [5n, 2-((3-Allyl-4-(naphthalen-2-yl)-2-thioxo-2,3-dihydro-1H-imidazol-1-yl)imino)-acenaphthylen-1(2H)-one] registered a melting point of 230 to 232 °C. Besides, the “Tb luminescence enhancement” value with calf thymus DNA (ctDNA) is on record as “minimum enhancement”.

A word on the melting point: it is the temperature of the solid-liquid transition. What is called IC50 is the point on the concentration scale where inhibition reaches its midpoint.

Values taken from publication PMC10946275, “New imidazole-2-thiones linked to acenaphythylenone as dual DNA intercalators and topoisomerase II inhibitors: structural optimization, docking, and apoptosis studies” (Journal of Enzyme Inhibition and Medicinal Chemistry, 2024).
